“And” between values parts separate entries of the source, which are not always exact repeats. Identical values can stand only once. Like-named read-outs stand apart in the source and are kept apart here.
What was measured:
[1] = test system: HSV-1 (ACV resistant); assay: In-vitro activity, HSV-1 (ACV resistant) infected vero; type: cell-based; conditions: Human alphaherpesvirus 1, Vero, read-out: IC50 (HSV-1 ACV resistant)
Experimental: (§1) The in-vitro activity for (HSV-1 infected Vero), (HSV-2 infected Vero) and (HSV-1 (ACV resistant) infected vero) was tested as outlined in WO2017/174640 and WO2019/068817. For comparison, the non-deuterated matched-pair to Example 1 of the present application has been tested, which is hereinafter designated as Comparative Example C7 and which corresponds to Example 7 of WO2017/174640.

[2] = test system: HSV-2; assay: In-vitro activity, HSV-2 infected Vero; type: cell-based; conditions: Human alphaherpesvirus 2; Vero cells
Experimental: as §1

[3] = Microsomal stability, human liver microsomes, conversion to hydroxylated metabolite; type: in vitro ADME; conditions: 1st and 2nd replicate
Experimental: Example 1 and the non-deuterated matched pair (Comparative Example C7/Example 7 from WO2017/174640) were incubated using three different batches of human liver microsomes (HLM) for a period of 60 min. The conversion to the hydroxylated metabolite was monitored by LC-MS.

[4] = test system: HSV-1; assay: In-vitro activity, HSV-1 infected Vero; type: cell-based; conditions: Human alphaherpesvirus 1; Vero cells
Experimental: as §1

[5] = Brain exposure and brain-to-plasma ratio in mouse; type: in vivo; conditions: C57BI/6N mouse; for behaviour and clinical signs after dosing: oral cassette dosing 10 mg/kg each; for Kp at 4 h: brain/plasma; for Kp at 4 h / concentration at 4 h: oral cassette 10 mg/kg
Experimental: The brain and plasma exposure for Example 6 as well as for Example 4/2 and for its non-deuterated matched-pair (Comparative Example C4/2/Example 7(—) from WO2017/174640) was asessed in 3 mice (strain C57BI/6N, weight 21-26 g) after oral cassette dosing with a dose of 10 mg/kg each after 4 h. The compounds were formulated in 5% DMSO and 95% aq. HPMC (0.5%). […] Plasma from the retrobulbar venous plexus was analyzed by LC-MS.

[6] = Pharmacokinetics in mouse; type: in vivo; conditions: male C57BI/6N mouse; for % AUCextra / t1/2z / tz / AUC(0-inf) / AUC(0-t) / C0 / clearance / concentration at 24 h / Vd / Cmax / Tmax: cassette; for AUC(0-inf) / AUC(0-t) / C0 / clearance / concentration at 24 h / Vd / bioavailability / Cmax / Tmax: plasma; for concentration at 24 h: read-out: Cz; for Vd: read-out: Vz; for bioavailability: po 10 mg/kg vs iv 2 mg/kg
Experimental: Plasma from the retrobulbar venous plexus was analyzed by LC-MS. The obtained data obtained is as follows (NC=not calculable): […]

[7] = Additional microsomal stability, human microsomes, hydroxy metabolite formation; type: in vitro ADME; conditions: human (mixed gender) microsomes, 60 min
Experimental: The formation of the hydroxy metabolites was quantified via peak area ratio towards the corresponding non-deuterated matched pair when incubating the samples in rat microsomes (SD rat, male) or human microsomes (mixed gender) for 60 min at Admescope. The peak signal (positive mode) was quantified with a Waters Acquity UPLC+Thermo Q-Exactive Focus Orbitrap MS on a Phenomenex Kinetex Biphenyl (2.1×50 mm, 1.7 μm particle size […]) column.

[8] = brain, read-out: mean brain conc. with SD
[9] = plasma, read-out: mean plasma conc. with SD

## Cc1nc(N(C)C(=O)Cc2ccc(-c3cc(F)ccc3F)cc2)sc1S(C)(=N)=O (racemic) [Comparative Example C7, reference compound]
[1]
  IC50: 25 to 100 nM
[2]
  IC50: 25 to 100 nM
[3]; HLM batch 38292, 60 min, listed as Comp. Example C7
  Parent [nM] 60 min: 1053 nM and 1255 nM
[3]; HLM batch 5061002, 60 min, listed as Comp. Example C7
  Parent [nM] 60 min: 1122 nM and 910 nM
[3]; HLM batch 6029002, 60 min, listed as Comp. Example C7
  Parent [nM] 60 min: 937 nM and 973 nM
[4]
  IC50: 25 to 100 nM

## [2H]C([2H])([2H])Oc1cccc(-c2ccc(CC(=O)N(C)c3nc(C)c(S(N)(=O)=O)s3)cc2)c1 [Example 5/1]
[1]
  IC50: 10 to 100 nM
[2]
  IC50: 5 to 75 nM
[4]
  IC50: 10 to 100 nM

## Cc1nc(N(C)C(=O)Cc2ccc(-c3cc(F)ccc3F)cc2)sc1[S@@](C)(=N)=O [Comparative Example C4/2, reference compound]
[5]
  behaviour and clinical signs after dosing: no clinical signs observed
  Kp at 4 h: 1.57
[5]; [8]
  concentration at 4 h: 5610 ± 1450 ng/mL
[5]; [9]
  concentration at 4 h: 3580 ± 726 ng/mL
[6]; iv 2 mg/kg
  % AUCextra: 12.4%
  t1/2z: 7.7 h
  tz: 24 h
  AUC(0-inf): 6390 ng·h/mL
  AUC(0-t): 5600 ng·h/mL
  C0: 10.4 ng/mL
  clearance: 5.22 mL/min/kg
  concentration at 24 h: 71.5 ng/mL
  Vd: 3.47 L/kg
[6]; po 10 mg/kg
  tz: 24 h
  AUC(0-t): 46600 ng·h/mL
  Cmax: 2960 ng/mL
  Tmax: 4 h
  concentration at 24 h: 1260 ng/mL
[6]
  bioavailability: 167%

## [2H]C([2H])([2H])c1nc(N(C)C(=O)Cc2ccc(-c3cc(F)ccc3F)cc2)sc1[S@](C)(=N)=O (single isomer, unassigned) [Example 4/1]
[1]
  IC50: 50 to 150 nM
[2]
  IC50: 50 to 250 nM
[4]
  IC50: 50 to 150 nM

## [2H]C([2H])([2H])c1nc(N(C)C(=O)Cc2ccc(-c3cccc(F)c3)cc2F)sc1S(N)(=O)=O [Example 6/1]
[1]
  IC50: 2 to 60 nM
[2]
  IC50: 4 to 75 nM
[4]
  IC50: 2 to 60 nM

## [2H]C([2H])([2H])c1nc(N(C)C(=O)Cc2ccc(-c3cc(F)ccc3F)cc2F)sc1S(N)(=O)=O [6/2]
[1]
  IC50: 2 to 60 nM
[2]
  IC50: 3 to 75 nM
[4]
  IC50: 2 to 60 nM

## [2H]C([2H])([2H])c1nc(N(C)C(=O)Cc2ccc(-c3cc(F)ccc3F)cc2)sc1[S@@](C)(=N)=O (single isomer, unassigned) [Example 4/2]
[5]; oral 10 mg/kg, after 4 h
  improvement of plasma and brain exposure compared to the non-deuterated matched-pair: over 50%
[5]
  behaviour and clinical signs after dosing: no clinical signs observed
  Kp at 4 h: 1.57
[5]; [8]
  concentration at 4 h: 8610 ± 2180 ng/mL
[5]; [9]
  concentration at 4 h: 5470 ± 1320 ng/mL
[6]; iv 2 mg/kg
  % AUCextra: 24.9%
  t1/2z: 11.3 h
  tz: 24 h
  AUC(0-inf): 10600 ng·h/mL
  AUC(0-t): 8000 ng·h/mL
  C0: 16.2 ng/mL
  clearance: 3.13 mL/min/kg
  concentration at 24 h: 162 ng/mL
  Vd: 3.07 L/kg
[6]; po 10 mg/kg
  tz: 24 h
  AUC(0-t): 80200 ng·h/mL
  Cmax: 4610 ng/mL
  Tmax: 4 h
  concentration at 24 h: 2730 ng/mL
[6]
  bioavailability: 201%
[1]
  IC50: 5 to 75 nM
[2]
  IC50: 10 to 90 nM
[4]
  IC50: 5 to 75 nM

## [2H]C([2H])([2H])Oc1ccccc1-c1ccc(CC(=O)N(C)c2nc(C)c(S(N)(=O)=O)s2)cc1 [5/2]
[1]
  IC50: 10 to 100 nM
[2]
  IC50: 30 to 150 nM
[4]
  IC50: 10 to 100 nM

## [2H]C([2H])([2H])c1nc(N(C)C(=O)Cc2ccc(-c3cc(F)ccc3F)cc2)sc1S(C)(=N)=O (racemic) [Example 1, 2-(2′,5′-Difluoro-[1,1′-biphenyl]-4-yl)-N-methyl-N-(4-(methyl-d3)-5-(S-methyl-sulfonimidoyl)thiazol-2-yl)acetamide]
[1]
  IC50: 25 to 125 nM
[2]
  IC50: 25 to 125 nM
[3]; HLM batch 38292, 60 min
  Parent [nM] 60 min: 928 nM and 1085 nM
[3]; HLM batch 5061002, 60 min
  Parent [nM] 60 min: 1083 nM and 1058 nM
[3]; HLM batch 6029002, 60 min
  Parent [nM] 60 min: 1231 nM and 1159 nM
[4]
  IC50: 25 to 125 nM

## [2H]c1c([2H])c([2H])c(-c2ccc(CC(=O)N(C)c3nc(C)c(S(N)(=O)=O)s3)cc2)c([2H])c1[2H] [Example 5, 2-([1,1′-Biphenyl]-4-yl-2′,3′,4′,5′,6′-d5)-N-methyl-N-(4-methyl-5-sulfamoyl-thiazol-2-yl)acetamide]
[1]
  IC50: 1 to 50 nM
[2]
  IC50: 25 to 125 nM
[4]
  IC50: 1 to 50 nM

## [2H]C([2H])([2H])c1nc(N(C)C(=O)Cc2ccc(-c3cc(F)ccc3F)cc2)sc1S(N)(=O)=O [Example 6, 2-(2′,5′-Difluoro-[1,1′-biphenyl]-4-yl)-N-methyl-N-(4-(methyl-d3)-5-sulfamoylthiazol-2-yl)acetamide]
[5]
  behaviour and clinical signs after dosing: no clinical signs observed
  Kp at 4 h: 0.78
[5]; [8]
  concentration at 4 h: 3220 ± 1910 ng/mL
[5]; [9]
  concentration at 4 h: 4130 ± 1760 ng/mL
[1]
  IC50: 2 to 60 nM
[2]
  IC50: 2 to 60 nM
[7]
  hydroxy metabolite peak area ratio: BLQ
[4]
  IC50: 2 to 60 nM

Reference: patent US12552756B2, “Deuterated aminothiazole compounds as antiviral compounds” (priority 2020, dated 2026)
